# Data: patent publication US20260242478A1, “ANTIBODIES FOR TARGETING PSMA AND CD28 AND USES THEREOF” (Janux Therapeutics, Inc., priority 2023, published 2026)
# Where no end group is shown, it is not given here.
# Tested on: anti-CD28 scFv
# Assay: Panning ELISA of clonal phage, anti-CD28 scFv, with or without CD28 soluble protein (Peptide-9 library)
# Format: binding
# Conditions: Peptide-9 library, background (no anti-CD28 scFv)
# Method: Clonal phage were harvested as crude supernatants and screened via standard enzyme linked immunosorbent assays (ELISAs). […] Prior to the addition of clonal phage, wells were incubated with blocking buffer and CD28 soluble protein or blocking buffer alone. Without washing or aspirating, clonal phage supernatants were then added to the wells and incubated for a short time. Wells were then washed followed by detection of bound phage using a horse radish peroxidase conjugated anti-M13 antibody. Clonal phage of interest were then sent for sequence analysis.
# anti-CD28 scFv, sequence (as listed by the source): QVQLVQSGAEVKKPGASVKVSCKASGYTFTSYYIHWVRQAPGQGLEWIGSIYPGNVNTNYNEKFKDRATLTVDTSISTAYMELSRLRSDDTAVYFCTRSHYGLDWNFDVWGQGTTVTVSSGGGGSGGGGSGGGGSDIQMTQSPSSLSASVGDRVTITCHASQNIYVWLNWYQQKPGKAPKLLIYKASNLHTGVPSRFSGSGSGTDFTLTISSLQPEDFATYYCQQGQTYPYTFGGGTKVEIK
row,Substance,Background signal
1,Phage-453 (MDWCPSDYWYVCFA),0.065
2,Phage-127 (MDWCPRALWNECFA),0.080
3,Phage-138 (MDWCPTNLWHECFA),0.061
4,Phage-448 (MAWCPWASFDECLA),0.104
5,Phage-49 (MSWCPIHLWNECFN; not fully specified; cysteine pairing not given here),0.083
6,Phage-119 (MDWCPRYLWHMCYS),0.129
7,Phage-436 (MDWCPRDRWADCFN),0.063
8,Phage-400 (MHWCPTYMWSECFA),0.070
9,Phage-427 (VILCPTTMWNRCFH),"0,100"
10,Phage-95 (MDWCPRFLWSECFN),0.062
11,Phage-414 (LYWCPRDMWAYCYS),0.068
12,Phage-55 (QDWCPRHMWSFCFH; not fully specified; cysteine pairing not given here),0.138
13,Phage-122 (MDWCPRDLWDQCYA),0.059
14,Phage-417 (IYWCPTAMWNRCSA),0.086
15,Phage-445 (MDWCPRARWHDCFF),0.097
16,Phage-437 (MDWCPVDRWADCFN),0.071
17,Phage-53 (MDWCPMHLWNKCFN; not fully specified; cysteine pairing not given here),0.071

row,Substance,Background signal
1,Phage-40 (MDWCPIDMWDQCFN; not fully specified; cysteine pairing not given here),0.061
2,Phage-130 (MDWCPRYLWDACFF),0.066
3,Phage-132 (MDWCPTYLWFECFN),0.205
4,Phage-112 (MHWCPRALWDVCYN),0.077
5,Phage-404 (MDWCPRDMWTSCFN),"0,100"
6,Phage-406 (MNWCPIDMWTECFN),0.245
7,Phage-451 (MDWCPRFWWHECYA),0.246
8,Phage-41 (MAWCPRDKWSECFS; not fully specified; cysteine pairing not given here),0.062
9,Phage-114 (MDWCPRYLWFECFA),0.066
10,Phage-65 (MDWCPMYLWNECFN; left off: large carriers),0.064
11,Phage-93 (MDWCPRYLWTVCFS),0.115
12,Phage-62 (MDWCPSYLWNECFF; left off: large carriers),0.065
13,Phage-420 (MFWCPSTMWNRCFD),0.063
14,Phage-407 (MNWCPIHMWNQCFA),0.085
15,Phage-419 (VDWCPAHMWNECYN),0.208
16,Phage-438 (MDWCPMSRWAFCFD),0.071
17,Phage-43 (MDWCPRALWHECFY; not fully specified; cysteine pairing not given here),0.115

# Same assay, conditions: background (no anti-CD28 scFv)
row,Substance,Background signal
1,Phage-346 (MDWCPRHLWHACFS),0.073
2,Phage-384 (IMWCPTSLWNRCVT),0.104
3,Phage-350 (MDWCPWFLWNECFN),0.158
4,Phage-364 (MDWCPRSLWAQCFY),0.067
5,Phage-313 (MDWCPRSLWNYCFN),0.076
6,Phage-396 (TDWCPRDMWYLCFN),0.082
7,Phage-367 (MDWCPSFLWYECFN),0.063
8,Phage-280 (MDWCPRYLWDYCFA),0.073
9,Phage-398 (MDWCPRNMWNECFF),0.095
10,Phage-339 (MDWCPRTLWDQCFF),0.088
11,Phage-377 (MDWCPFDLWLECFN),0.087
12,Phage-366 (MHWCPLYLWDECFY),0.153
13,Phage-293 (MDWCPRHLWFECFN),0.064
14,Phage-334 (MDWCPRYLWDECFS),0.069
15,Phage-330 (MDWCPRFLWDVCFN),0.100
16,Phage-310 (MDWCPRDLWDECFN),0.066
17,Phage-283 (MDWCPRHLWNECFN),0.079
18,Phage-285 (MDWCPRDLWAMCFA),0.071

row,Substance,Background signal
1,Phage-394 (MDWCPRYMWSDCFF),0.082
2,Phage-299 (MDWCPIYLWAECFN),0.078
3,Phage-338 (MDWCPRFLWNECFY),0.143
4,Phage-375 (MNWCPRALWHECFL),0.085
5,Phage-305 (MDWCPRDLWTECFS),0.080
6,Phage-277 (MDWCPRSHWSECFS; not fully specified; cysteine pairing not given here),0.080
7,Phage-357 (MDWCPRLLWHECFN),0.071
8,Phage-353 (IDWCPLHLWHECYH),0.067
9,Phage-365 (MDWCPSYLWPVCFN),0.079
10,Phage-391 (MDWCPFDMWADCFF),0.063
11,Phage-382 (ITWCPTSLWNRCLV),0.077
12,Phage-286 (MERCPRYLWHMCYS),0.164
13,Phage-348 (MAWCPWYLWDECFN),0.200
14,Phage-352 (MDWCPIHLWYECFN),0.080
15,Phage-316 (MDWCPRSLWNYCFA),0.067
16,Phage-325 (MDWCPAYLWDECFA),0.096
17,Phage-282 (MDWCPRDLWFACFA),0.060

# Tested on: PSMA Fab
# Assay: Phage binding ELISA, PSMA Fab, with or without PSMA antigen (peptide-179 and peptide-180 libraries)
# Conditions: peptide-180 library clonal phage; background (no Fab)
# Method: (§1) Once the phage optimization libraries were completed, phage libraries were bio-panned using PSMA Fab loaded beads. Multiple rounds of panning were performed where bacteriophage was allowed to bind to PSMA Fab loaded beads. washed. eluted, and amplified. After panning, phage infected bacteria were plated out and colonies picked into 96 well blocks. Clonal phage was then amplified and separated from bacterial cells via centrifugation. Phage containing supemnatants were tested in binding ELISAs against PSMA Fab coated plates in the presence or absence of saturating concentrations of PSMA antigen. Phage able to bind PSMA Fab were selected for sequence analysis if the binding signal was reduced in the presence of PSMA.
# Clonal phage were harvested as crude supernatants and screened via standard ELISAs. Briefly, biotinylated PSMA Fab was captured on neutravidin coated plates. Prior to the addition of clonal phage. wells were incubated with blocking buffer and PSMA antigen or blocking buffer alone. Without washing or aspirating, clonal phage supernatants were then added to the wells and incubated for a short time. Wells were then washed followed by detection of bound phage using a horse radish conjugated anti-M13 antibody. Clonal phage of interest were then sent for sequence analysis.
# as §1, with “beads, washed,” for “beads. washed.”, “supernatants” for “supemnatants”
# PSMA Fab, sequence (as listed by the source): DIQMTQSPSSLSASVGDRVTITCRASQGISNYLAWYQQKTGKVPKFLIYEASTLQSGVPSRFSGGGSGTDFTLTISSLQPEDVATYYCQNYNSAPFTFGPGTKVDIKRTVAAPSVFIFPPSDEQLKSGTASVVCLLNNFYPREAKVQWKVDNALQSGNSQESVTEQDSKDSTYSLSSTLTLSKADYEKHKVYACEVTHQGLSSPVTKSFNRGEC
# PSMA Fab, sequence (as listed by the source): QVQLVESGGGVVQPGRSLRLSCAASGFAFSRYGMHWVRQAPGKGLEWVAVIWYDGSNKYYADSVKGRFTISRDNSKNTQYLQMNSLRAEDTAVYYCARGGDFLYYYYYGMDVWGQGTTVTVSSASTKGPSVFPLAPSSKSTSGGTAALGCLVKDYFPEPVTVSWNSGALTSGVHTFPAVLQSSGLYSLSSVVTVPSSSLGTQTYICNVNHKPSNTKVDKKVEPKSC
row,Substance,Phage binding ELISA Background signal
1,Phage-2851 (DMRLCVPEWMCLGL; not fully specified; cysteine pairing not given here),0.0889
2,Phage-2854 (VHIMCKPAWMCLGF; not fully specified; cysteine pairing not given here),0.0917
3,Phage-2858 (TQAMCKPAWMCQGF; not fully specified; cysteine pairing not given here),0.0585
4,Phage-2861 (WDRLCIPAWMCSGF; not fully specified; cysteine pairing not given here),0.0903
5,Phage-2807 (WENWCIPQWMCGTA),0.1629
6,Phage-2812 (VGPWCIPDWMCDVV),0.0572
7,Phage-2857 (LERACVPSWMCTGF; not fully specified; cysteine pairing not given here),0.0649
8,Phage-2790 (VMKWCTPSWMCAEA),0.067
9,Phage-2799 (ESKWCVPTWMCAEN),0.0516
10,Phage-2810 (MDIWCKPRWMCEEY),0.0644
11,Phage-2794 (TEKWCIPQWMCVRT),0.056
12,Phage-2841 (ESIRCTPAWMCVEM; not fully specified; cysteine pairing not given here),0.0625
13,Phage-2842 (PEVMCRPVWMCLGF; not fully specified; cysteine pairing not given here),0.0609
14,Phage-2791 (WEKWCTPSWMCSGI),0.0564
15,Phage-2804 (EGKWCTPTWMCQGF),0.0669
16,Phage-2808 (MEKWCTPRWMCVGM),0.0767
17,Phage-2855 (WEMKCIPEWMCRGF; cysteine pairing not given here; also: large carriers left off),0.0794
18,Phage-2795 (FEKWCTPQWMCNSM),0.0569
19,Phage-2864 (IETWCVPRWMCEGF),0.0693
20,Phage-2856 (VQRMCEPSWMCFGF; not fully specified; cysteine pairing not given here),0.0631
21,Phage-2867 (VLPMCSPPWMCIGL),0.0631
22,Phage-2811 (VPKWCTPSWMCEFT),0.0593
23,Phage-2797 (ERIWCTPKWMCETF),0.0696
24,Phage-2809 (VTKLCIPEWMCVIQ),0.0543
25,Phage-2813 (FSKLCTPPWMCSVS),0.0586
26,Phage-2869 (WPQLCVPMWMCAGL),0.1456
27,Phage-2805 (MMHWCTPPWMCEFS),0.0597
28,Phage-2800 (DYKWCTPPWMCDSR),0.0795
